Patent US7008633B2 (priority 2000, dated 2006)
Where a name gives a salt, the structure may show the parent alone. Numbered stars: 1 amine (or outer) side, 2 acyl side, 3 side chain; on linkers, the order of the positions; unused ones are H or OH. Bridge positions count the residues as written; N and C are the ends. Square brackets hold non-standard residues; d marks the D form. Peptide text beside a SMILES is read from it. I, II: the chains in the order shown. Actinocin(9to1) = Cc1c2oc3c(C)ccc(C(=O)[*:1])c3nc-2c(C(=O)[*:2])c(N)c1=O; NMeV = CN[C@H](C(=O)O)C(C)C; Sar = CNCC(=O)O

What was measured:
[1] = in vivo, cited from earlier work
[2] = Blood chemical assay (BUN, serum creatinine) to detect renal toxicity; assay type: in vivo, rat; settings: for BUN / SERUM CREATININE: intratumoral 3 MG/KD, breast tumor-bearing rats
Protocol: The SA-CDDP (0.1 ml; cisplatin dose was 3 mg/kg body weight) was injected directly into the tumors through 27 G needles. In a preferred embodiment, about […] SA is used per injection. Calcium chloride (8% in water) was then injected into the same place to form cisplatin-loaded alginate beads in the tumors. The tumor size was measured to determine the anticancer effect, and the blood chemical assay (blood urea nitrogen [BUN] and serum creatinine) were performed to detect renal toxicity.
On day 40, BUN in five experimental rats and five healthy rats (control) were 18.30±1.51 mg/dl and 17.88±2.24 mg/dl, respectively. There was no statistical significance (p>0.05) between the two. Serum creatinine levels were the same as in both experimental and control rats (0.6 mg/dl).

[3] = In vitro slow release of cisplatin from alginate beads; assay type: physicochemical; settings: incubated in PBS at 37° C.
Protocol: To study in vitro slow release of an anticancer drug from a polymer, the anticancer drug cisplatin and the polymer sodium alginate were tested for slow release of the drug. Cisplatin-loaded alginate beads (SA-CDDP) were formed instantly and then incubated in phosphate-buffered saline (PBS) in tubes at 37° C. Cisplatin was completely released from the alginate beads in 15 hours, which is considerably slower than the release time (within 2.5 hours) of cisplatin powder only (control) (FIG. 1).

multiple myeloma = settings: oral administration; cited from earlier work
[4] = in vivo; cited from earlier work

Cc1c2oc3c(C)ccc(C(=O)N[C@@H]4C(=O)N[C@H](C(C)C)C(=O)N5CCC[C@H]5C(=O)N(C)CC(=O)N(C)[C@@H](C(C)C)C(=O)O[C@@H]4C)c3nc-2c(C(=O)N[C@@H]2C(=O)N[C@H](C(C)C)C(=O)N3CCC[C@H]3C(=O)N(C)CC(=O)N(C)[C@@H](C(C)C)C(=O)O[C@@H]2C)c(N)c1=O [Actinomycin D] (I: T[dV]P[Sar][NMeV] / II: T[dV]P[Sar][NMeV]; ester I:1-I:C, II:1-II:C; linker I:N-II:N via Actinocin(9to1))
share of the dose excreted intact into the bile [1]: Half of the dose | share of the dose excreted or detected intact in the urine [1]: 10%

[NH2][Pt]([NH2])([Cl])[Cl] [CDDP, cisplatin]
nephrotoxicity ([2]; CDDP intratumorally): a clear nephrotoxicity was observed | BUN ([2]; day 2): 56.21 mg/dL | SERUM CREATININE ([2]; day 2): 1.5 mg/dL | BUN ([2]; day 5): 246.42 mg/dL | SERUM CREATININE ([2]; day 5): 7.03 mg/dL | BUN ([2]; day 7): 152.35 mg/dL | SERUM CREATININE ([2]; day 7): 2.4 mg/dL | BUN ([2]; day 16): 41.75 mg/dL | SERUM CREATININE ([2]; day 16): 0.7 mg/dL | oral absorption ([1]; po): not absorbed orally | time to complete release of cisplatin [3]: ≤ 2.5 h

COc1cccc2c1C(=O)c1c(O)c3c(c(O)c1C2=O)C[C@@](O)(C(C)=O)C[C@@H]3O[C@H]1C[C@H](N)[C@H](O)[C@H](C)O1 [Daunorubicin, 5,12-Naphthacenedione, (8S-cis)-8-acetyl-10-[(3-amino-2,3,6-trideoxy-a-L-lyxo-hexanopyranosyl)oxy]-7,8,9,10-tetrahydro-6,8,11-trihydroxy-10-methoxy-, hydrochloride]
oral absorption ([1]; po): Oral absorption is poor

O=NN(CCCl)C(=O)NC1CCCCC1 [Lomustine, 1-(2-chloro-ethyl)-3-cyclohexyl-1 nitrosourea]
radioactivity excreted in the form of degradation products ([1]; po): about half

N[C@@H](Cc1ccc(N(CCCl)CCCl)cc1)C(=O)O [Melphalan, 4-[bis(2-chloroethyl)amino]-L-phenylalanine]
share of patients with a favorable response (multiple myeloma): about one third to one half

CO[C@@]12[C@H](COC(N)=O)C3=C(C(=O)C(C)=C(N)C3=O)N1C[C@@H]1N[C@@H]12 [Mitomycin]
share of a dose excreted unchanged in the urine [4]: Approximately 10%

CC[C@]1(O)C[C@@H]2CN(CCc3c([nH]c4ccccc34)[C@@](C(=O)OC)(c3cc4c(cc3OC)N(C)[C@H]3[C@@](O)(C(=O)OC)[C@H](OC(C)=O)[C@]5(CC)C=CCN6CC[C@]43[C@@H]65)C2)C1 [Vinblastine]
share of the dose excreted or detected intact in the urine [1]: Approximately 15%
